Results on six compounds are retold here after article PMC10604324, “Implications for Combination Therapy of Selective Monoamine Reuptake Inhibitors on Dopamine Transporters” (Biomedicines, 2023).

The structures appear in SMILES notation. “And” between values parts separate entries of the source, which are not always exact repeats. Equal entries are not always repeated. Where two headings read alike, the source gives them in different places.

One assay deals with human DAT (Homo sapiens, UniProt Q01959). The assay is described as follows: Fluorescence-based neurotransmitter uptake assay, HEK-hDAT cells. The class given is cell-based.
Sequence of human DAT (Q01959 whole entry): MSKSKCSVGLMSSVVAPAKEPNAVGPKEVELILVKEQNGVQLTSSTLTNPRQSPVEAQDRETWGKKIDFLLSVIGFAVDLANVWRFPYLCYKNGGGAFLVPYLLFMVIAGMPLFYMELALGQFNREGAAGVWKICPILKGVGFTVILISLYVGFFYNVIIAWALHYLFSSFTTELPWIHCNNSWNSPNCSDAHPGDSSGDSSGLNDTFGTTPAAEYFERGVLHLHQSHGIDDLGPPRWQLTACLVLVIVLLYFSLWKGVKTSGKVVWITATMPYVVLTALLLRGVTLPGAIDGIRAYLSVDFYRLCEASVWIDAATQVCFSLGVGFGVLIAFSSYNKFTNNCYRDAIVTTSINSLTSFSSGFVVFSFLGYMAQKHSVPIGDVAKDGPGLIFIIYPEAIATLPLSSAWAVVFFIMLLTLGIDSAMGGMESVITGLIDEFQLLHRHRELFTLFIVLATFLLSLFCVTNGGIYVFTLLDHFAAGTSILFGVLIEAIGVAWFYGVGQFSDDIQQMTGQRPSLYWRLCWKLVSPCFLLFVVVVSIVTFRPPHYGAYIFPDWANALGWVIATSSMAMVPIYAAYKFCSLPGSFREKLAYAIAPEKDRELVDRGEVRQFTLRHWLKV
Assay [1] concerns DAT. Also on record: method as in PMID 10997723. Conditions: effect of isethionate on mazindol binding; cited from earlier work.
Assay [2] deals with DAT. Conditions: cited from earlier work.
The next assay has as its system NET. Conditions: cited from earlier work.
A further assay relates to SERT. Conditions: cited from earlier work.
The mark [3] stands for this setting: DAT inhibition by monovalent ions.
The mark [4] stands for this setting: read-out: Literature IC50, substrate uptake assay, ref A.J. Eshleman, et al., J Pharmacol Exp Ther 289 (1999) 877-885.
The mark [5] stands for this setting: read-out: Literature IC50, substrate uptake assay, ref M.J. Hansard, et al., J Pharmacol Exp Ther 303 (2002) 952-958.

In general, IC50 refers to the point on the concentration scale where inhibition reaches its midpoint. For the compound `C[N+](C)(C)CCO` [Choline], on human DAT, the “Hill coefficient (h)” value is recorded as 1.4 ± 0.2. The IC50 against human DAT (setting [3]) is 37000 µM and 36600 µM.
As to `O=C(O)[C@H](O)[C@@H](O)[C@H](O)[C@H](O)CO` [Gluconate], at human DAT (setting [3]), the “Hill coefficient (h)” value was found to be 1.2 ± 0.3 and the IC50 was 1400 ± 200 µM.
`O=S(=O)(O)CCO` [Isethionate]: at human DAT (setting [3]), the “Hill coefficient (h)” value is on record as 0.8 ± 0.2 and the IC50 turned out to be 3300 ± 600 µM. In addition, in the assay on DAT [1], the “reduction of the binding of a DAT inhibitor, mazindol” value was “more than 50%”.
Regarding `CNC[C@H](O)[C@H](O)[C@H](O)[C@H](O)CO` [NMDG], on human DAT (setting [3]), the “Hill coefficient (h)” value is 11 and 10.6 ± 3.8; inhibition was half-maximal at 3700 ± 200 µM (IC50).
As to `CNCCC(Oc1ccccc1OC)c1ccccc1` (stereo not drawn) [Nisoxetine], the IC50 was […] in the assay on DAT [2] (setting [4]), 0.0053 µM in the assay on NET (setting [4]) and […] in the assay on SERT (setting [4]).
In the case of `Fc1ccc(C(OCCN2CCN(CCCc3ccccc3)CC2)c2ccc(F)cc2)cc1` [Vanoxerine], the IC50 is […] in the assay with DAT [2] (setting [5]), […] in the assay with NET (setting [5]) and […] in the assay with SERT (setting [5]).
